US20090318396A1, “CORTICOSTEROID LINKED BETA-AGONIST COMPOUNDS FOR USE IN THERAPY” (priority 2008, published 2009)

System: airway epithelial cells cultured at an air-liquid interface
Assay: Drug metabolism in airway epithelial cells cultured at an air-liquid interface
Assay type: in vitro ADME, human
Method: Cryopreserved passage 1 cells were cultured in bronchial epithelial growth medium (Fulcher, M. L., et al., Well-differentiated human airway epithelial cell cultures. Methods Mol Med, 2005. 107: p. 183-206) on 100 mm Type I collagen-coated plastic dishes. At 70% confluence, passage 2 cells were transferred to type IV collagen-coated Millicell membranes (Millipore, Bedford, Mass.) in medium that supports growth at an air-liquid-interface (ALI) (Fulcher er al., 2005). Cells were maintained at an ALI and allowed to differentiate fully for approximately 28 days. […] Approximately 1 hour prior to the start of the experiment, the apical surfaces of the cells were washed once again with PBS and the basolateral media replaced with fresh ALI media. At time=0 hrs, the test article was diluted from a 10 mM stock solution in DMSO to a 40 μM solution in ALI media/PBS/10% EtOH/water (v/v). 50 μl of the resulting 40 μM solution was immediately added to the apical surface of the cells. 200 μl of the dosing solution was also added to 800 μl of 100% ACN and frozen immediately on dry ice. The remaining dosing solution was placed in the incubator with the cells. The dosing solution and cells were allowed to incubate for 10, 120 and 240 min at which points the apical surfaces of cells from 4 millicell cell culture inserts (n=4) were washed with 3×100 μl of PBS or 10% EtOH/water (v/v) per millicell. […]

## CC[N+](CC)(CC(=O)OCC(=O)[C@@]12O[C@H](C3CCCCC3)O[C@@H]1C[C@H]1[C@@H]3CCC4=CC(=O)C=C[C@]4(C)[C@H]3[C@@H](O)C[C@@]12C)Cc1cc(C(O)CNCCCCCCOCCCCc2ccccc2)ccc1OP(=O)(O)O.[Cl-] (stereo partly drawn) [Example 52, [5-[1-hydroxy-2-[6-(4-phenylbutoxy)hexylamino]ethyl]-2-phosphonooxybenzyl]-(diethyl)-[[11β,16α]-[[15,16-((R)-cyclohexylmethylene)bis(oxy)]-11-hydroxypregna-1,4-diene-3,20-dion-21-yl]carbonylmethyl]ammonium chloride]
Apical and cellular compartments
  amount of the parent compound over time: decreased over time
Cellular compartment
  amount of salmeterol and desciclesonide over time: increased in the cellular compartment
